Source: the NIST ThermoML archive (doi:10.1016/j.fluid.2014.04.002)

Assay: xn = mol fraction of the nth substance listed
Conditions: 101 kPa, Liquid; for viscosity: Concentric cylinders viscometry; for mass density: Vibrating tube method

CCOC(=O)C(C)O (stereo not drawn) [DL-ethyl lactate] + CC(O)CO
Conditions	mass density [kg/m3]	viscosity [mPa·s]
288.15 K, x1 = 0.1	1039.89	49.88
288.15 K, x1 = 0.2	1039.87	30.87
288.15 K, x1 = 0.3	1039.88	21.2
288.15 K, x1 = 0.3999	1039.91	14.75
288.15 K, x1 = 0.4998	1039.94	10.62
288.15 K, x1 = 0.599	1039.96	7.616
288.15 K, x1 = 0.6999	1039.9	6.169
288.15 K, x1 = 0.7994	1039.72	4.764
288.15 K, x1 = 0.8997	1039.32	4.114
288.15 K, x1 = 1	1039.28	3.207
293.15 K, x1 = 0.1	1036.36	36.91
293.15 K, x1 = 0.2	1035.81	23.41
293.15 K, x1 = 0.3	1035.6	16.34
293.15 K, x1 = 0.3999	1035.44	11.64
293.15 K, x1 = 0.4998	1035.3	8.236
293.15 K, x1 = 0.599	1035.15	6.227
293.15 K, x1 = 0.6999	1034.93	5.098
293.15 K, x1 = 0.7994	1034.57	4.153
293.15 K, x1 = 0.8997	1034.01	3.478
293.15 K, x1 = 1	1033.84	2.75
298.15 K, x1 = 0.1	1032.13	27.72
298.15 K, x1 = 0.2	1031.64	18.11
298.15 K, x1 = 0.3	1031.2	12.87
298.15 K, x1 = 0.3999	1030.83	9.303
298.15 K, x1 = 0.4998	1030.52	6.75
298.15 K, x1 = 0.599	1030.23	5.172
298.15 K, x1 = 0.6999	1029.94	4.274
298.15 K, x1 = 0.7994	1029.58	3.521
298.15 K, x1 = 0.8997	1029.08	2.978
298.15 K, x1 = 1	1028.39	2.39
303.15 K, x1 = 0.1	1028.31	21.49
303.15 K, x1 = 0.2	1027.6	14.26
303.15 K, x1 = 0.3	1026.98	10.37
303.15 K, x1 = 0.3999	1026.44	7.605
303.15 K, x1 = 0.4998	1025.95	5.615
303.15 K, x1 = 0.599	1025.46	4.35
303.15 K, x1 = 0.6999	1024.89	3.632
303.15 K, x1 = 0.7994	1024.21	3.021
303.15 K, x1 = 0.8997	1023.32	2.582
303.15 K, x1 = 1	1022.92	2.097
308.15 K, x1 = 0.1	1024.23	16.84
308.15 K, x1 = 0.2	1023.36	11.41
308.15 K, x1 = 0.3	1022.6	8.434
308.15 K, x1 = 0.3999	1021.9	6.292
308.15 K, x1 = 0.4998	1021.21	4.739
308.15 K, x1 = 0.599	1020.5	3.704
308.15 K, x1 = 0.6999	1019.72	3.118
308.15 K, x1 = 0.7994	1018.88	2.626
308.15 K, x1 = 0.8997	1017.93	2.259
308.15 K, x1 = 1	1017.42	1.858
313.15 K, x1 = 0.1	1020.4	13.41
313.15 K, x1 = 0.2	1019.26	9.264
313.15 K, x1 = 0.3	1018.24	6.949
313.15 K, x1 = 0.3999	1017.32	5.27
313.15 K, x1 = 0.4998	1016.47	4.04
313.15 K, x1 = 0.599	1015.64	3.187
313.15 K, x1 = 0.6999	1014.75	2.706
313.15 K, x1 = 0.7994	1013.74	2.302
313.15 K, x1 = 0.8997	1012.53	1.995
313.15 K, x1 = 1	1011.9	1.658
318.15 K, x1 = 0.1	1016.39	10.83
318.15 K, x1 = 0.2	1015.04	7.619
318.15 K, x1 = 0.3	1013.82	5.804
318.15 K, x1 = 0.3999	1012.72	4.465
318.15 K, x1 = 0.4998	1011.69	3.482
318.15 K, x1 = 0.599	1010.69	2.767
318.15 K, x1 = 0.6999	1009.63	2.368
318.15 K, x1 = 0.7994	1008.46	2.034
318.15 K, x1 = 0.8997	1007.1	1.774
318.15 K, x1 = 1	1006.36	1.491
323.15 K, x1 = 0.1	1012.34	8.86
323.15 K, x1 = 0.2	1010.78	6.34
323.15 K, x1 = 0.3	1009.36	4.904
323.15 K, x1 = 0.3999	1008.08	3.824
323.15 K, x1 = 0.4998	1006.88	3.03
323.15 K, x1 = 0.599	1005.71	2.423
323.15 K, x1 = 0.6999	1004.48	2.09
323.15 K, x1 = 0.7994	1003.15	1.81
323.15 K, x1 = 0.8997	1001.64	1.589
323.15 K, x1 = 1	1000.79	1.349

CCOC(=O)C(C)O (stereo not drawn) [DL-ethyl lactate] + OCCCO
Conditions	mass density [kg/m3]	viscosity [mPa·s]
288.15 K, x1 = 0.1001	1056.19	51.26
288.15 K, x1 = 0.2001	1055.73	38.55
288.15 K, x1 = 0.3	1054.58	28.06
288.15 K, x1 = 0.3998	1053.41	20.15
288.15 K, x1 = 0.4996	1051.81	14.63
288.15 K, x1 = 0.5997	1049.85	10.55
288.15 K, x1 = 0.7	1047.67	7.714
288.15 K, x1 = 0.8	1045.16	5.639
288.15 K, x1 = 0.8997	1042.56	4.327
288.15 K, x1 = 1	1039.28	3.207
293.15 K, x1 = 0.1001	1052.84	40.04
293.15 K, x1 = 0.2001	1052.12	30.14
293.15 K, x1 = 0.3	1050.74	22.16
293.15 K, x1 = 0.3998	1049.3	16.06
293.15 K, x1 = 0.4996	1047.46	11.78
293.15 K, x1 = 0.5997	1045.28	8.579
293.15 K, x1 = 0.7	1042.88	6.35
293.15 K, x1 = 0.8	1040.14	4.704
293.15 K, x1 = 0.8997	1037.34	3.583
293.15 K, x1 = 1	1033.84	2.75
298.15 K, x1 = 0.1001	1049.47	31.54
298.15 K, x1 = 0.2001	1048.48	23.97
298.15 K, x1 = 0.3	1046.87	17.76
298.15 K, x1 = 0.3998	1045.13	12.92
298.15 K, x1 = 0.4996	1043.1	9.585
298.15 K, x1 = 0.5997	1040.69	7.071
298.15 K, x1 = 0.7	1038.07	5.296
298.15 K, x1 = 0.8	1035.11	3.974
298.15 K, x1 = 0.8997	1032.1	3.071
298.15 K, x1 = 1	1028.39	2.39
303.15 K, x1 = 0.1001	1046.08	25.3
303.15 K, x1 = 0.2001	1044.83	19.39
303.15 K, x1 = 0.3	1042.98	14.35
303.15 K, x1 = 0.3998	1041.02	10.58
303.15 K, x1 = 0.4996	1038.71	7.942
303.15 K, x1 = 0.5997	1036.07	5.912
303.15 K, x1 = 0.7	1033.23	4.482
303.15 K, x1 = 0.8	1030.05	3.405
303.15 K, x1 = 0.8997	1026.83	2.661
303.15 K, x1 = 1	1022.92	2.097
308.15 K, x1 = 0.1001	1042.68	20.61
308.15 K, x1 = 0.2001	1041.16	15.81
308.15 K, x1 = 0.3	1039.07	11.84
308.15 K, x1 = 0.3998	1036.66	8.791
308.15 K, x1 = 0.4996	1034.3	6.65
308.15 K, x1 = 0.5997	1031.42	5.009
308.15 K, x1 = 0.7	1028.37	3.833
308.15 K, x1 = 0.8	1024.96	2.944
308.15 K, x1 = 0.8997	1021.54	2.329
308.15 K, x1 = 1	1017.42	1.858
313.15 K, x1 = 0.1001	1039.25	16.9
313.15 K, x1 = 0.2001	1037.46	13.04
313.15 K, x1 = 0.3	1035.13	9.826
313.15 K, x1 = 0.3998	1032.52	7.365
313.15 K, x1 = 0.4996	1029.86	5.624
313.15 K, x1 = 0.5997	1026.75	4.28
313.15 K, x1 = 0.7	1023.48	3.308
313.15 K, x1 = 0.8	1019.84	2.57
313.15 K, x1 = 0.8997	1016.22	2.056
313.15 K, x1 = 1	1011.9	1.658
318.15 K, x1 = 0.1001	1035.8	14
318.15 K, x1 = 0.2001	1033.74	10.86
318.15 K, x1 = 0.3	1031.16	8.236
318.15 K, x1 = 0.3998	1028.33	6.232
318.15 K, x1 = 0.4996	1025.39	4.805
318.15 K, x1 = 0.5997	1022.05	3.691
318.15 K, x1 = 0.7	1018.55	2.883
318.15 K, x1 = 0.8	1014.69	2.263
318.15 K, x1 = 0.8997	1010.87	1.83
318.15 K, x1 = 1	1006.36	1.491
323.15 K, x1 = 0.1001	1032.33	11.78
323.15 K, x1 = 0.2001	1030	9.189
323.15 K, x1 = 0.3	1027.16	7.027
323.15 K, x1 = 0.3998	1024.09	5.361
323.15 K, x1 = 0.4996	1020.89	4.174
323.15 K, x1 = 0.5997	1017.32	3.235
323.15 K, x1 = 0.7	1013.6	2.551
323.15 K, x1 = 0.8	1009.51	2.023
323.15 K, x1 = 0.8997	1005.5	1.648
323.15 K, x1 = 1	1000.79	1.349
